# Assay results taken from patent US9371364B2, “Dual-targeted therapeutic peptide for nasopharyngeal carcinoma, nanoparticles carrying same and uses thereof” (HUAZHONG UNIVERSITY OF SCIENCE AND TECHNOLOGY, priority 2012, dated 2016).
# System: nasopharyngeal carcinoma cells (5-8 F, SUNE-1, HONE-1) versus other cancer cells
# Assay: Octa-FNP fluorescent nano-probe screening of tumor cells (laser confocal imaging, FACS)
# Assay type: cell-based
# Details: 3 h incubation, FIG. 1
# Procedure: In this example, a peptide octavalent fluorescent nanoprobe based on tetramer far-red fluorescent protein was prepared by using a method for constructing a peptide fluorescent probe having a multivalent effect and a nanosized effect invented in the previous research. The probe was used to detect and screen different types of tumor cell lines, in order to screen and identify the tumor-targeting property of the peptide, […] (SEQ ID NO: 3).
sequence,measurement,value
LTVSPWYLTVSPWY (a targeted therapeutic peptide for nasopharyngeal carcinoma),induction of tumor cell death,can effectively induce the death of tumor cells
same,tumor-targeting property of the peptide,excellent tumor-targeting property to nasopharyngeal carcinoma cells
